Assay results reported in PubChem BioAssay (NCI).
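Results reflect a 48-hour exposure of cells in 96-well plates to compound at five concentrations. The concentration for 50% growth inhibition is given as GI50. TGI is the concentration that stops growth completely.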

What was measured:
Test in all cases: growth of human tumour cells (NCI), 48 h
SN12C renal = tested on: SN12C renal
SW-620 colon = tested on: SW-620 colon
ACHN renal = tested on: ACHN renal
SNB-19 CNS = tested on: SNB-19 CNS
OVCAR-8 ovarian = tested on: OVCAR-8 ovarian
NCI-H23 lung = tested on: NCI-H23 lung
T-47D breast = tested on: T-47D breast
MCF7 breast = tested on: MCF7 breast
MDA-MB-435 = tested on: MDA-MB-435

| SMILES | TGI (SN12C renal) [µM] | TGI (SW-620 colon) [µM] | TGI (ACHN renal) [µM] | TGI (SNB-19 CNS) [µM] | TGI (OVCAR-8 ovarian) [µM] | TGI (NCI-H23 lung) [µM] | GI50 (SN12C renal) [µM] | GI50 (SW-620 colon) [µM] | GI50 (T-47D breast) [µM] | TGI (T-47D breast) [µM] | GI50 (MCF7 breast) [µM] | TGI (MCF7 breast) [µM] | GI50 (ACHN renal) [µM] | GI50 (SNB-19 CNS) [µM] | GI50 (MDA-MB-435) [µM] | TGI (MDA-MB-435) [µM] | GI50 (OVCAR-8 ovarian) [µM] | GI50 (NCI-H23 lung) [µM] |
| --- | --- | --- | --- | --- | --- | --- | --- | --- | --- | --- | --- | --- | --- | --- | --- | --- | --- | --- |
| Cc1[nH]c2cc([N+](=O)[O-])ccc2c1[N+](=O)[O-] | 95 | 97.9 | 50.3 | 56.5 | 79.8 | 58.6 | – | – | – | – | – | – | – | – | – | – | – | – |
| COC(=O)c1cc2cc(/C=C3/SC(=S)N(N(C(C)=O)C(C)=O)C3=O)oc2n1Cc1ccccc1 | 56 | > 100 | 35.9 | > 100 | 42.8 | 44.6 | 20.7 | 41 | > 100 | > 100 | 34.1 | > 100 | 18.3 | 27.3 | 29 | > 100 | 18.3 | 21.4 |
| Cc1ccc(S(=O)(=O)C2CC2(Cl)Cl)cc1 (stereo not drawn) | 35.8 | 44.1 | 70.8 | > 100 | 41 | 62.5 | – | – | – | – | – | – | – | – | – | – | – | – |
| COC(=O)[C@@]12C3=NO[C@]1(C(=O)OC)C(O[Si](C)(C)C(C)(C)C)[C@@H](OC(C)=O)[C@@H](OC(C)=O)[C@@H]2[C@@H](OCc1ccccc1)CC3 (stereo partly drawn) | > 100 | > 100 | > 100 | > 100 | > 100 | > 100 | – | – | – | – | – | – | – | – | – | – | – | – |
| O=C(Oc1c(Cl)cc(Cl)cc1Cl)c1ccccc1Nc1ccnc(C(F)(F)F)c1 | 14.5 | > 100 | 6.52 | > 100 | 49.9 | 6.3 | 3.07 | 4.59 | 8.55 | > 100 | 4.68 | > 100 | 2.46 | 7.07 | – | – | 3.04 | 2.59 |
| CC(=O)C1C(=O)C(=O)N(CCN2C(=O)C(=O)C(C(C)=O)C2=O)C1=O (stereo not drawn) | > 100 | > 100 | > 100 | > 100 | > 100 | > 100 | – | – | – | – | – | – | – | – | – | – | – | – |
| CC(=O)CC(=O)Nc1ccccc1C(F)(F)F | > 100 | > 100 | > 100 | > 100 | > 100 | > 100 | – | – | – | – | – | – | – | – | – | – | – | – |
| O=C(N/C(=C\c1ccc(/C=C(\NC(=O)c2ccccc2)c2nc3c(O)nc(S)nc3[nH]2)cc1)c1nc2c(O)nc(S)nc2[nH]1)c1ccccc1 | > 100 | > 100 | > 100 | > 100 | > 100 | > 100 | – | – | – | – | – | – | – | – | – | – | – | – |
| CCN(CC)C(=S)SS(C)(=O)=O | 29.9 | 35.2 | 31.8 | 58.4 | 39.4 | 35.4 | – | – | – | – | – | – | – | – | – | – | – | – |
| N#Cc1c(N)nc(N2CCOCC2)c(C#N)c1-c1c(Cl)cccc1Cl | 33.2 | > 100 | 44.5 | 25.6 | 63.2 | – | 6.17 | 5.16 | 3.43 | 10.1 | 2.92 | 16.4 | 13.4 | 6.09 | 1.57 | 3.8 | 14.2 | – |
| O=C1C(Cl)=C(NCCCN(CCCNC2=C(Cl)C(=O)c3ccccc3C2=O)C2=C(Cl)C(=O)c3ccccc3C2=O)C(=O)c2ccccc21 | 3.51 | 4.9 | – | 18.9 | 10.5 | 5.26 | 1.51 | 2.21 | – | – | 1.48 | 3.89 | – | 3.79 | 1.74 | 3.26 | 3 | 1.69 |
| S=C(SSC(=S)N1CCCCC1)N1CCCCC1 | 50.4 | 26.9 | 41 | > 100 | 60.9 | 36 | 17.2 | 13.4 | – | – | – | – | 15.5 | 51 | 22 | > 100 | 16.2 | 16.3 |
| CC1=C2C=CC(=O)C[C@@]2(C)CCC1 | > 100 | > 100 | > 100 | > 100 | > 100 | > 100 | – | – | – | – | – | – | – | – | – | – | – | – |
| O=C1C=CC(=O)c2c1nc(CBr)[nH]c2=O | > 100 | – | > 100 | – | > 100 | > 100 | – | – | – | > 100 | – | > 100 | – | – | – | 87.4 | – | – |
| CCN(CC)c1ccc(C2N3CCCCC3[C@@H]3c4[nH]c5ccccc5c4CCN23)cc1 (stereo partly drawn) | 51.6 | > 100 | 74.7 | > 100 | > 100 | > 100 | – | – | – | – | – | – | – | – | – | – | – | – |
| CC(=O)[CH-]C(=O)c1ccccc1.CC(=O)[CH-]C(=O)c1ccccc1.CC(=O)[CH-]C(=O)c1ccccc1.[Ga+3] | 33.2 | 55.8 | > 100 | > 100 | 29.2 | 48.3 | 15 | 23 | – | – | – | – | 30.3 | 39.1 | – | – | 14.8 | 20.2 |
| CCCCCCCCCCCCCS(=O)(=O)NCC(N)=O | > 100 | > 100 | > 100 | > 100 | > 100 | > 100 | – | – | – | – | – | – | – | – | – | – | – | – |
| CCOC(=O)C1C(=O)CC(=O)C2CCCCC21 (stereo not drawn) | > 100 | > 100 | > 100 | > 100 | > 100 | > 100 | – | – | – | – | – | – | – | – | – | – | – | – |
